Like-named read-outs stand apart in the source and are kept apart here.
What was measured:
[1] = target: T1, MPS1 kinase (Homo sapiens, UniProt P33981); conditions: background statement; WO 2014/037750; cited from earlier work
T1 sequence (P33981 1-857): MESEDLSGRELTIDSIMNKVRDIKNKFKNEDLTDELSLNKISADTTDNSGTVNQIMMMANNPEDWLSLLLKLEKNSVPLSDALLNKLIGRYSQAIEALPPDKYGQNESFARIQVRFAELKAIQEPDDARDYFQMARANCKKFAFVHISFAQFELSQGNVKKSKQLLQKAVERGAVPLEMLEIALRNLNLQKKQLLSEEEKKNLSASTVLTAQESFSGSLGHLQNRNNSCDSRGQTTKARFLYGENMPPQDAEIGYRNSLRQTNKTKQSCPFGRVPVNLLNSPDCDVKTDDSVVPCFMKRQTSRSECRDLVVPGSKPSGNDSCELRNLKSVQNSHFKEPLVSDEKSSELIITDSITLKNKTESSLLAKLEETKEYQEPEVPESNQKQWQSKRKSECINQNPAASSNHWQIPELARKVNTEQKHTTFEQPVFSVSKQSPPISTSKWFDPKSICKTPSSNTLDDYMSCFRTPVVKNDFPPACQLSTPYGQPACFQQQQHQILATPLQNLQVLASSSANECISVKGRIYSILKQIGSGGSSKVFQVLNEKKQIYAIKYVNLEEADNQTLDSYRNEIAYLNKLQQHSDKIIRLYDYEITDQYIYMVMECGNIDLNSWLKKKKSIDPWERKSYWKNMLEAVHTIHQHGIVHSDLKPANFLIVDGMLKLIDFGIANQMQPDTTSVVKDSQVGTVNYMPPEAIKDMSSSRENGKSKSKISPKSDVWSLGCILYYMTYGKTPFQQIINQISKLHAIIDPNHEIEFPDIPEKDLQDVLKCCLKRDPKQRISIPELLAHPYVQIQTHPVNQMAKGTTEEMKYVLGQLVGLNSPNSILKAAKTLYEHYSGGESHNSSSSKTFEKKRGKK

[2] = Recrystallisation studies (XRPD form classification); format: physicochemical
Procedure: The ditosylate salt of the compound of formula I (about 100 mg) was suspended in a designated volume of water miscible solvent at a given temperature, followed by the addition of one volume aliquots of pre-heated water until dissolution was achieved. The agitated mixtures were then cooled to 20° C. and agitated for about 16 hours. […] Solvent, solvent ratios and form classification of the isolated solids are detailed in Table 2.

[3] = for XRPD classification: 20/40° C. cycling
Procedure: The equilibration of a solid in various solvents with temperature modulation is an accepted approach to investigate the form stability of a solid and the generation of alternate modifications, polymorphs/solvates of the material.
The ditosylate of the compound of formula I, 35 mg, was subjected to equilibration in various solvents with agitation at 20° C. for 90 hours, 40° C. for 3 hours, cooled to 20° C. over 3 hours, then heated to 40° C. for 16 hours and cooled to 20° C. The solvents were initially charged to the salts in aliquots, 0.25 ml, until dissolution was observed or a volume of 2 ml achieved. The solids were isolated by filtration and dried in vacuo at 50° C. for about 16 hours and then analysed by XRPD.

[4] = for Solubility: Form A, 37° C., minimum of 23 hours; for pH: pH of the aqueous mixture
Procedure: Crystalline ditosylate salt of the compound of formula I (about 40 mg, Form A) was suspended by gentle shaking in various aqueous buffers, biologically relevant media and formulation vehicles, 2×0.5 ml, at ambient temperature, ca 20° C. The mixtures were then heated to 37° C. with agitation for a minimum of 23 hours. The pH of the aqueous mixtures were also measured.
Table 1 presents the pH measurements and the solubility in various dissolution media.

[5] = Procedure: The ability of samples studied to absorb moisture (or not) over a set of well-determined humidity ranges was assessed. Sorption isotherms were obtained using a Hiden Isochema moisture sorption analyser (model IGAsorp), controlled by IGAsorp Systems Software V6.50.48. The sample was maintained at a constant temperature (25° C.) by the instrument controls. The humidity was controlled by mixing streams of dry and wet nitrogen, with a total flow of 250 ml·min^−1. The instrument was verified for relative humidity content by measuring three calibrated Rotronic salt solutions (10-50-88%). The weight change of the sample was monitored as a function of humidity by a microbalance (accuracy +/−0.005 mg). A defined amount of sample (typically 10-15 mg powder) was placed in a tared mesh stainless steel basket under ambient conditions. A full experimental cycle typically consisted of three scans (desorption, sorption, and desorption) at a constant temperature (25° C.) and 10% RH intervals over a 0-90% range (60 minutes for each humidity level). Solids are then held post cycle at 0% RH for 2-3 hours and tested by XRPD and the remainder held at 90% RH for 2-3 hours and re-tested by XRPD.
[6] = 40° C. and 75% RH, 3 weeks
Procedure: The ditosylate salt of the compound of formula I was stored at 40° C. and 75% RH in loose screw top vials for 3 weeks.

[7] = from 0 to 90% RH, 25° C., Form A

In the case of `CCOc1cc(-c2nncn2C)ccc1Nc1ncc2cc(C)nc(NCC(C)(C)C)c2n1` [compound I, N2-(2-ethoxy-4-(4-methyl-4H-1,2,4-triazol-3-yl)phenyl)-6-methyl-N8-neopentylpyrido[3,4-d]pyrimidine-2,8-diamine], the “MPS1 kinase inhibitory activity” value [1] is listed as “potent MPS1 kinase inhibitory activity”.
With `CCOc1cc(-c2nncn2C)ccc1Nc1ncc2cc(C)nc(NCC(C)(C)C)c2n1.Cc1ccc(S(=O)(=O)O)cc1.Cc1ccc(S(=O)(=O)O)cc1` [ditosylate Form C, ditosylate salt of N2-(2-ethoxy-4-(4-methyl-4H-1,2,4-triazol-3-yl)phenyl)-6-methyl-N8-neopentylpyrido[3,4-d]pyrimidine-2,8-diamine Form C] the “Form stability on thermal manipulation (XRPD, DSC)” value ([2]; solid isolated from exclusively ethanol, FIG. 5, FIG. 6) was “metastable form that could be thermally converted to ditosylate Form A”.
With `CCOc1cc(-c2nncn2C)ccc1Nc1ncc2cc(C)nc(NCC(C)(C)C)c2n1.Cc1ccc(S(=O)(=O)O)cc1.Cc1ccc(S(=O)(=O)O)cc1` [ditosylate salt of N2-(2-ethoxy-4-(4-methyl-4H-1,2,4-triazol-3-yl)phenyl)-6-methyl-N8-neopentylpyrido[3,4-d]pyrimidine-2,8-diamine] the XRPD classification ([3]; equilibration in 1,4-Dioxane) was “Form A”, the XRPD classification ([3]; equilibration in 1-Butanol) was “Form A” and the XRPD classification ([3]; equilibration in 2-Chlorobutane) was “Form A”. The XRPD classification ([3]; equilibration in 2-Methyltetrahydrofuran) was “Form A”, the XRPD classification ([3]; equilibration in 2-Propanol) was “Form A” and the XRPD classification ([3]; equilibration in 3-Methyl-1-butanol) was “Form A”. For the same compound, the XRPD classification ([3]; equilibration in Acetonitrile) was “Form A”, the XRPD classification ([3]; equilibration in Chlorobenzene) was “Form A” and the XRPD classification ([3]; equilibration in Ethyl acetate) was “Form A”. For the same compound, the XRPD classification ([3]; equilibration in Heptane) was “Form A”, the XRPD classification ([3]; equilibration in Isopropyl acetate) was “Form A” and the XRPD classification ([3]; equilibration in Methanol) was “Form A”. For the same compound, the XRPD classification ([3]; equilibration in Methyl isobutyl ketone) was “Form A”, the XRPD classification ([3]; equilibration in Methylcyclohexane) was “Form A” and the XRPD classification ([3]; equilibration in Nitromethane) was “Form A”. The XRPD classification ([3]; equilibration in TBME) was “Form A”, the XRPD classification ([3]; equilibration in Toluene) was “Form A” and the XRPD classification ([3]; equilibration in Trifluorotoluene) was “Form A”. The XRPD classification ([3]; equilibration in Water) was “Form A”, the XRPD classification ([3]; equilibration in n-Butyl acetate) was “Form A” and the “Propensity to exhibit version or polymorphic variance” value ([3]; summary of the polymorphism studies) was “remarkable lack of propensity to exhibit version or polymorphic variance”. The “XRPD Observations” value ([2]; 2-butanone 8 volumes, water 1 volume, 80 ° C.) was “Form A”, the “XRPD Observations” value ([2]; 2-propanol 8 volumes, water 1 volume, 80 ° C.) was “Form A” and the “XRPD Observations” value ([2]; Acetone 10 volumes, water 2 volumes, 60 ° C.) was “Form A”. The “XRPD Observations” value ([2]; Acetonitrile 2 volumes, water 1 volume, 60 ° C.) was “Form A”, the “XRPD Observations” value ([2]; Ethanol 2 volumes, water 1 volume, 60 ° C.) was “Form A” and the “XRPD Observations” value ([2]; Ethanol 15 volumes, no water, 80 ° C.) was “Form C”. For the same compound, the Solubility ([4]; FaSSIF) was 14210 µg/mL, the Solubility ([4]; FeSSIF) was 1690 µg/mL and the Solubility ([4]; NaCl,0.9%/DMSO/Tween 20) was 12690 µg/mL. For the same compound, the Solubility ([4]; PEG300) was 2900 µg/mL, the Solubility ([4]; Phosphate buffer) was 2240 µg/mL and the Solubility ([4]; SFaGF) was 5720 µg/mL. For the same compound, the Solubility ([4]; Sodium chloride 0.9% w/v) was 9580 µg/mL, the Solubility ([4]; Water, deionised) was 5850 µg/mL and the pH ([4]; Acetate buffer) was 4.33. It also gave a pH ([4]; FaSSIF) of 2.41, a pH ([4]; FeSSIF) of 3.05 and a pH ([4]; NaCl,0.9%/DMSO/Tween 20) of 1.97. The pH ([4]; Phosphate buffer) was 2.56, the pH ([4]; SFaGF) was 1.40 and the pH ([4]; Sodium chloride 0.9% w/v) was 2.01. For the same compound, the pH ([4]; Water, deionised) was 2.13, the “Form change post DVS and at the extremes of humidity (XRPD)” value ([5]; 0% RH and 90% RH, FIG. 8) was “no evidence of form change” and the DVS profile ([5]; 0-90% RH, 25° C., Form A, FIG. 7) was “reversible water uptake over the humidity range and no hysteresis”. The Water uptake/loss [5, 7] was 2.13%, the “Water uptake/loss as equivalents of water” value [5, 7] was “about 1.0 equivalents of water” and the “Chemical degradation after storage” value [6] was “no evidence of chemical degradation”. The Hydration following storage [6] was “no evidence”, the “Form modification after storage (XRPD)” value ([6]; FIG. 4) was “No evidence of form modification” and the “Change in appearance after storage” value ([6]; loose screw top vials) was “No change in appearance”.

Source: patent US11964972B2, “Salt form” (CRT Pioneer Fund LP, priority 2018, dated 2024)
